Assay results taken from patent US20240415914A1, “Water Dispersible Cannabinoid Compositions” (priority 2021, published 2024).
Read-outs that look alike come from different tables or passages of the source.

Experiments:
[1] = format: physicochemical; conditions: stored at room temperature (21-25° C.)
Description: At each time period, 0.05 g of powder was dissolved in 10 ml-15 of ethanol, diluted to fall within the analytical range, and injected into the LCMSMS for analysis.

[2] = Stability of cannabinoid and Vitamin E components of Beverage 2 (AB Red) stored at 8° C. and 21-25° C., LCMSMS over 570 days
Description: The LCMSMS was calibrated for 0-50 ng/ml cannabinoids with the same resin material used in the preparation of the concentrates. At each time period, 100 μml of beverage was diluted with 10 ml of methanol and injected into the LCMSMS for analysis.

CCCCCc1cc(O)c2c(c1)OC(C)(C)c1ccc(C)cc1-2 [CBN, cannabinol]
Stability in Powder Concentrate (content by LCMSMS) ([1]; day 0): 0.480 mg/g powder | Stability in Powder Concentrate (content by LCMSMS) ([1]; day 1): 0.471 mg/g powder | Stability in Powder Concentrate (content by LCMSMS) ([1]; day 2): 0.488 mg/g powder | Stability in Powder Concentrate (content by LCMSMS) ([1]; day 3): 0.474 mg/g powder | Stability in Powder Concentrate (content by LCMSMS) ([1]; day 5): 0.491 mg/g powder | Stability in Powder Concentrate (content by LCMSMS) ([1]; day 8): 0.469 mg/g powder | Stability in Powder Concentrate (content by LCMSMS) ([1]; day 9): 0.466 mg/g powder | Stability in Powder Concentrate (content by LCMSMS) ([1]; day 10): 0.499 mg/g powder | Stability in Powder Concentrate (content by LCMSMS) ([1]; day 11): 0.494 mg/g powder | Stability in Powder Concentrate (content by LCMSMS) ([1]; day 12): 0.496 mg/g powder | Stability in Powder Concentrate (content by LCMSMS) ([1]; day 15): 0.472 mg/g powder | Stability in Powder Concentrate (content by LCMSMS) ([1]; day 16): 0.483 mg/g powder | Stability in Powder Concentrate (content by LCMSMS) ([1]; day 17): 0.465 mg/g powder | Stability in Powder Concentrate (content by LCMSMS) ([1]; day 18): 0.470 mg/g powder | Stability in Powder Concentrate (content by LCMSMS) ([1]; day 19): 0.490 mg/g powder | Stability in Powder Concentrate (content by LCMSMS) ([1]; day 22): 0.486 mg/g powder | Stability in Powder Concentrate (content by LCMSMS) ([1]; day 23): 0.469 mg/g powder | Stability in Powder Concentrate (content by LCMSMS) ([1]; day 24): 0.465 mg/g powder | Stability in Powder Concentrate (content by LCMSMS) ([1]; day 25): 0.486 mg/g powder | Stability in Powder Concentrate (content by LCMSMS) ([1]; day 26): 0.486 mg/g powder | Stability in Powder Concentrate (content by LCMSMS) ([1]; day 29): 0.484 mg/g powder | Stability in Powder Concentrate (content by LCMSMS) ([1]; day 30): 0.476 mg/g powder | Stability in Powder Concentrate (content by LCMSMS) ([1]; day 60): 0.489 mg/g powder | Stability in Powder Concentrate (content by LCMSMS) ([1]; day 90): 0.483 mg/g powder | Stability in Powder Concentrate (content by LCMSMS) ([1]; day 120): 0.498 mg/g powder | Stability in Powder Concentrate (content by LCMSMS) ([1]; day 150): 0.500 mg/g powder | Stability in Powder Concentrate (content by LCMSMS) ([1]; day 180): 0.464 mg/g powder | Stability in Powder Concentrate (content by LCMSMS) ([1]; day 210): 0.501 mg/g powder | Stability in Powder Concentrate (content by LCMSMS) ([1]; day 240): 0.467 mg/g powder | Stability in Powder Concentrate (content by LCMSMS) ([1]; day 270): 0.464 mg/g powder | Stability in Powder Concentrate (content by LCMSMS) ([1]; day 300): 0.469 mg/g powder | Stability in Powder Concentrate (content by LCMSMS) ([1]; day 330): 0.502 mg/g powder | Stability in Powder Concentrate (content by LCMSMS) ([1]; day 360): 0.499 mg/g powder | Stability in Powder Concentrate (content by LCMSMS) ([1]; day 390): 0.479 mg/g powder | Stability in Powder Concentrate (content by LCMSMS) ([1]; day 420): 0.481 mg/g powder | Stability in Powder Concentrate (content by LCMSMS) ([1]; day 450): 0.480 mg/g powder | Stability in Powder Concentrate (content by LCMSMS) ([1]; day 480): 0.485 mg/g powder | Stability in Powder Concentrate (content by LCMSMS) ([1]; day 510): 0.499 mg/g powder | Stability in Powder Concentrate (content by LCMSMS) ([1]; day 540): 0.492 mg/g powder | Stability in Powder Concentrate (content by LCMSMS) ([1]; day 570): 0.471 mg/g powder | Stability of Cannabinoids in AB Red ([2]; 8° C., 0 days): 2.81 µg/mL | Stability of Cannabinoids in AB Red ([2]; 8° C., 1 days): 2.82 µg/mL | Stability of Cannabinoids in AB Red ([2]; 8° C., 2 days): 2.74 µg/mL | Stability of Cannabinoids in AB Red ([2]; 8° C., 3 days): 2.83 µg/mL | Stability of Cannabinoids in AB Red ([2]; 8° C., 5 days): 2.78 µg/mL | Stability of Cannabinoids in AB Red ([2]; 8° C., 8 days): 2.80 µg/mL | Stability of Cannabinoids in AB Red ([2]; 8° C., 9 days): 2.74 µg/mL | Stability of Cannabinoids in AB Red ([2]; 8° C., 10 days): 2.79 µg/mL | Stability of Cannabinoids in AB Red ([2]; 8° C., 11 days): 2.73 µg/mL | Stability of Cannabinoids in AB Red ([2]; 8° C., 12 days): 2.76 µg/mL | Stability of Cannabinoids in AB Red ([2]; 8° C., 15 days): 2.77 µg/mL | Stability of Cannabinoids in AB Red ([2]; 8° C., 16 days): 2.83 µg/mL | Stability of Cannabinoids in AB Red ([2]; 8° C., 17 days): 2.80 µg/mL | Stability of Cannabinoids in AB Red ([2]; 8° C., 18 days): 2.78 µg/mL | Stability of Cannabinoids in AB Red ([2]; 8° C., 19 days): 2.78 µg/mL | Stability of Cannabinoids in AB Red ([2]; 8° C., 22 days): 2.73 µg/mL | Stability of Cannabinoids in AB Red ([2]; 8° C., 23 days): 2.79 µg/mL | Stability of Cannabinoids in AB Red ([2]; 8° C., 24 days): 2.76 µg/mL | Stability of Cannabinoids in AB Red ([2]; 8° C., 25 days): 2.83 µg/mL | Stability of Cannabinoids in AB Red ([2]; 8° C., 26 days): 2.79 µg/mL | Stability of Cannabinoids in AB Red ([2]; 8° C., 29 days): 2.77 µg/mL | Stability of Cannabinoids in AB Red ([2]; 8° C., 30 days): 2.77 µg/mL | Stability of Cannabinoids in AB Red ([2]; 8° C., 60 days): 2.73 µg/mL | Stability of Cannabinoids in AB Red ([2]; 8° C., 90 days): 2.80 µg/mL | Stability of Cannabinoids in AB Red ([2]; 8° C., 120 days): 2.69 µg/mL | Stability of Cannabinoids in AB Red ([2]; 8° C., 150 days): 2.69 µg/mL | Stability of Cannabinoids in AB Red ([2]; 8° C., 180 days): 2.74 µg/mL | Stability of Cannabinoids in AB Red ([2]; 8° C., 210 days): 2.69 µg/mL | Stability of Cannabinoids in AB Red ([2]; 8° C., 240 days): 2.74 µg/mL | Stability of Cannabinoids in AB Red ([2]; 8° C., 270 days): 2.76 µg/mL | Stability of Cannabinoids in AB Red ([2]; 8° C., 300 days): 2.75 µg/mL | Stability of Cannabinoids in AB Red ([2]; 8° C., 330 days): 2.71 µg/mL | Stability of Cannabinoids in AB Red ([2]; 8° C., 390 days): 2.72 µg/mL | Stability of Cannabinoids in AB Red ([2]; 8° C., 420 days): 2.69 µg/mL | Stability of Cannabinoids in AB Red ([2]; 8° C., 450 days): 2.71 µg/mL | Stability of Cannabinoids in AB Red ([2]; 8° C., 480 days): 2.66 µg/mL | Stability of Cannabinoids in AB Red ([2]; 8° C., 510 days): 2.62 µg/mL | Stability of Cannabinoids in AB Red ([2]; 8° C., 540 days): 2.60 µg/mL | Stability of Cannabinoids in AB Red ([2]; 8° C., 570 days): 2.58 µg/mL | Stability of Cannabinoids in AB Red ([2]; 21-25° C., 0 days): 2.81 µg/mL | Stability of Cannabinoids in AB Red ([2]; 21-25° C., 1 days): 2.73 µg/mL | Stability of Cannabinoids in AB Red ([2]; 21-25° C., 2 days): 2.83 µg/mL | Stability of Cannabinoids in AB Red ([2]; 21-25° C., 3 days): 2.78 µg/mL | Stability of Cannabinoids in AB Red ([2]; 21-25° C., 5 days): 2.71 µg/mL | Stability of Cannabinoids in AB Red ([2]; 21-25° C., 8 days): 2.74 µg/mL | Stability of Cannabinoids in AB Red ([2]; 21-25° C., 9 days): 2.72 µg/mL | Stability of Cannabinoids in AB Red ([2]; 21-25° C., 10 days): 2.73 µg/mL | Stability of Cannabinoids in AB Red ([2]; 21-25° C., 11 days): 2.83 µg/mL | Stability of Cannabinoids in AB Red ([2]; 21-25° C., 12 days): 2.70 µg/mL | Stability of Cannabinoids in AB Red ([2]; 21-25° C., 15 days): 2.77 µg/mL | Stability of Cannabinoids in AB Red ([2]; 21-25° C., 16 days): 2.81 µg/mL | Stability of Cannabinoids in AB Red ([2]; 21-25° C., 17 days): 2.74 µg/mL | Stability of Cannabinoids in AB Red ([2]; 21-25° C., 18 days): 2.80 µg/mL | Stability of Cannabinoids in AB Red ([2]; 21-25° C., 19 days): 2.70 µg/mL | Stability of Cannabinoids in AB Red ([2]; 21-25° C., 22 days): 2.70 µg/mL | Stability of Cannabinoids in AB Red ([2]; 21-25° C., 23 days): 2.82 µg/mL | Stability of Cannabinoids in AB Red ([2]; 21-25° C., 24 days): 2.78 µg/mL | Stability of Cannabinoids in AB Red ([2]; 21-25° C., 25 days): 2.84 µg/mL | Stability of Cannabinoids in AB Red ([2]; 21-25° C., 26 days): 2.70 µg/mL | Stability of Cannabinoids in AB Red ([2]; 21-25° C., 29 days): 2.78 µg/mL | Stability of Cannabinoids in AB Red ([2]; 21-25° C., 30 days): 2.77 µg/mL | Stability of Cannabinoids in AB Red ([2]; 21-25° C., 60 days): 2.78 µg/mL | Stability of Cannabinoids in AB Red ([2]; 21-25° C., 90 days): 2.75 µg/mL | Stability of Cannabinoids in AB Red ([2]; 21-25° C., 120 days): 2.77 µg/mL | Stability of Cannabinoids in AB Red ([2]; 21-25° C., 150 days): 2.75 µg/mL | Stability of Cannabinoids in AB Red ([2]; 21-25° C., 180 days): 2.70 µg/mL | Stability of Cannabinoids in AB Red ([2]; 21-25° C., 210 days): 2.70 µg/mL | Stability of Cannabinoids in AB Red ([2]; 21-25° C., 240 days): 2.73 µg/mL | Stability of Cannabinoids in AB Red ([2]; 21-25° C., 270 days): 2.73 µg/mL | Stability of Cannabinoids in AB Red ([2]; 21-25° C., 300 days): 2.70 µg/mL | Stability of Cannabinoids in AB Red ([2]; 21-25° C., 330 days): 2.75 µg/mL | Stability of Cannabinoids in AB Red ([2]; 21-25° C., 390 days): 2.65 µg/mL | Stability of Cannabinoids in AB Red ([2]; 21-25° C., 420 days): 2.64 µg/mL | Stability of Cannabinoids in AB Red ([2]; 21-25° C., 450 days): 2.68 µg/mL | Stability of Cannabinoids in AB Red ([2]; 21-25° C., 480 days): 2.58 µg/mL | Stability of Cannabinoids in AB Red ([2]; 21-25° C., 510 days): 2.66 µg/mL | Stability of Cannabinoids in AB Red ([2]; 21-25° C., 540 days): 2.65 µg/mL | Stability of Cannabinoids in AB Red ([2]; 21-25° C., 570 days): 2.58 µg/mL
